Laboratory results from patent US20230338521A1, “METHODS OF TREATING CANCER USING A COMBINATION OF A PD-1 ANTAGONIST, A CHEMORADIATION THERAPY AND A PARP INHIBITOR” (priority 2020, published 2023).
Where “and” joins values, the source holds several entries; their conditions need not be identical. Identical values can stand only once.

What was measured:
[1] = tested on: unresectable, locally advanced stage III NSCLC; experiment: Phase 2 clinical trial of pembrolizumab plus platinum doublet chemotherapy and concurrent radiotherapy: ORR, duration of response, PFS, OS by BICR per RECIST v1.1; assay type: in vivo, human; conditions: pembrolizumab plus CCRT; for 6-mo OS rate / 6-mo PFS rate / Response duration ≥6 month, % / Duration of response, median (range): Kaplan-Meier estimate; for Duration of response, median (range): + = no progressive disease at last assessment; for ORR, % [90% CI]: patients with ≥15 weeks follow up, data cutoff Jan. 3, 2020
Description: (§1) FIG. 1 illustrate a schema of a clinical phase 2 study of pembrolizumab plus platinum doublet chemotherapy and concurrent radiotherapy as first-line therapy for unresectable, locally advanced stage III NSCLC (NSCLC).
(§2) This is a non-randomized, open label study. FIG. 1 sets forth a schematic of the study. The primary objective is overall response rate (ORR) per response evaluation criteria in solid tumors (RECIST) version 1.1 by blinded independent central review (BICR). Secondary objectives are progression free survival (PFS), overall survival (OS) and safety. Key eligibility criteria are as set forth in FIG. 1 and include Stage IIIA-C, unresectable, locally advanced, pathologically confirmed, previously untreated NSCLC; measurable disease based on RECIST v1.1; eastern cooperative oncology group (ECOG) performance status 0 or 1; adequate pulmonary function; and no prior systemic immunosuppressive therapy within 7 days.
The table below provides ORR and Duration of Response/Efficacy by BICR per RECIST v1.1, patients with ≥15 weeks follow up (Jan. 3, 2020 data cutoff date)
PFS and OS were assessed in patients with at least 15 weeks follow up. As shown in the table above, at the data cutoff, few patients in either cohort had experienced disease progression or died.

[2] = Phase 2 clinical trial of pembrolizumab plus platinum doublet chemotherapy and concurrent radiotherapy: grade ≥3 pneumonitis and adverse events; assay type: in vivo, human; conditions: pembrolizumab plus CCRT; for Grade ≥3 pneumonitis (all cause), % [90% CI]: all enrolled patients, data cutoff Jan. 3, 2020
Description: as §1, §2
A secondary primary objective of the study was incidence of grade≥3 pneumonitis, which was assessed in all enrolled patients, regardless of their follow-up duration (see table below). In both cohorts, the rate of grade≥3 pneumonitis was less than 10%. One patient in cohort B had interstitial lung disease; the remaining patients had either pneumonitis or radiation pneumonitis. Incidence of other adverse events was consistent with that reported in other pembrolizumab monotherapy studies in NSCLC. Immune-mediated adverse events and infusion reactions (regardless of attribution to study treatment by the investigator) occurred in 47% of patients in cohort A and 27% in cohort B. 15% of patients in cohort A and 8% in cohort B experienced grade 2-5 immune mediated adverse events or infusion reactions.

[3] = Cohort A, N = 112, ≥15 weeks follow up
[4] = Cohort B, N = 53, ≥15 weeks follow up

## pembrolizumab: monoclonal antibody directed to the PD-1 receptor; KEYTRUDA, Merck and Co., Inc.
[1]; Cohort A, N = 112
  6-mo OS rate: 87% and 87.2%
  6-mo PFS rate: 81.4%
  Response duration ≥6 month, %: (91.1) %
  Duration of response, median (range): NR (1.6+ to 10.5+)
  ORR, % [90% CI]: (67.0) [58.9-74.3] %
[1]; [3]
  Complete response (CR), %: (2.7) %
  No Assessment, %: (8.9) %
  Not evaluable, %: (2.7) %
  PD, %: (0.9) %
  Partial response (PR), %: (64.3) %
[1]; Cohort B, N = 53
  6-mo OS rate: 95% and 94.8%
  6-mo PFS rate: 85.2%
  Response duration ≥6 month, %: (100) %
  Duration of response, median (range): NR (1.7+ to 10.5+)
  ORR, % [90% CI]: (56.6) [44.4-68.2] %
[1]; [4]
  Complete response (CR), %: (3.8) %
  No Assessment, %: (9.4) %
  Partial response (PR), %: (52.8) %
[1]; both cohorts
  ORR: exceeded 50%
[1]; both cohorts, at least 15 weeks follow up
  progression free survival rate at 6 months: greater than 80%
[1]; either cohort, at data cutoff
  Median overall survival: had not been reached
  Median progression free survival: had not been reached
[1]; most patients with a response
  Estimated response duration: ≥ 6 months
[1]; patients with unresectable, locally advanced stage III NSCLC
  antitumor activity: promising antitumor activity
[2]; Cohort A, N = 112
  Immune-mediated adverse events and infusion reactions, Grades 3-5, %: (15.2) %
  Immune-mediated adverse events and infusion reactions, Led to death, %: (3.6) %
  Treatment Releated Adverse Events, %: (93.8) %
  Treatment Releated Adverse Events, Grade 3-5, %: (64.3) %
  Treatment Releated Adverse Events, Led to death, %: (3.6) %
  Treatment Releated Adverse Events, Led to discontinuation of any treatment component, %: (28.6) %
  Grade ≥3 pneumonitis (all cause), % [90% CI]: (8.0) [4.3-13.6] %
[2]; Cohort B, N = 73
  Treatment Releated Adverse Events, %: (87.7) %
  Treatment Releated Adverse Events, Grade 3-5, %: (41.1) %
  Treatment Releated Adverse Events, Led to discontinuation of any treatment component, %: (12.3) %
  Grade ≥3 pneumonitis (all cause), % [90% CI]: (5.5) [1.9-12.1] %
[2]; cohort A
  grade 2-5 immune mediated adverse events or infusion reactions, % of patients: 15%
[2]; cohort B
  grade 2-5 immune mediated adverse events or infusion reactions, % of patients: 8%
  patients with interstitial lung disease (among grade ≥3 pneumonitis): One
[2]; compared with CCRT for stage III NSCLC and pembrolizumab monotherapy
  incidence of adverse events: consistent with the established toxicity profiles
[2]; compared with immunotherapy combined with CCRT
  Observed rates of grade ≥3 pneumonitis: within the expected range
